Where “and” joins values, the source holds several entries; their conditions need not be identical. Equal entries are not always repeated.
Columns and labels:
sphingosine kinase (SK) = test: Screening assay for inhibitors of SK; format: biochemical, human; conditions: library screen
Text: An assay for screening for inhibitors of SK has been established (French et al., Cancer Res 63: 5962 (2003)). […] Representative active compounds from four chemotypes of SK inhibitors, designated herein as Compounds I-IV, are shown in FIG. 1.

physchem = conditions: aqueous with cosolvent or surfactant or cyclodextrin
Experimental: (§1) The compounds are soluble to at least 15 mg/ml in 50% dimethylsulfoxide:50% phosphate-buffered saline (DMSO:PBS) for intraperitoneal (IP) administration or Polyethylene glycol-400 (PEG400) for oral dosing.

[1] = system: JC murine mammary adenocarcinoma; test: JC mammary adenocarcinoma syngenic tumor model in Balb/C mice
Experimental: FIG. 12. […] Balb/c female mice were injected subcutaneously with JC cells suspended in PBS. […] Whole body weight and tumor volume measurement were performed for up to 18 days. *p<0.05. Inset: Averaged body weights of mice from each group during course of study.
FIG. 13. […] Balb/c female mice were injected s.c. with JC cells suspended in PBS.
We determined the antitumor activity of representative SK inhibitors in a syngenic mouse tumor model that uses a transformed murine mammary adenocarcinoma cell line (JC, ATCC Number CRL-2116) and Balb/C mice (Charles River) (Lee et al., Oncol Res 14: 49 (2003)). Animals were housed under 12 hour light/dark cycles, with food and water provided ad libitum. Tumor cells (1×10^6) were implanted subcutaneously, and tumor volume was calculated using the equation: (L×W^2)/2. Upon detection of tumors, mice were randomized into treatment groups.

male Lewis rats = test: Adjuvant-Induced Arthritis model in rats; format: in vivo, rat; conditions: Day 10
Experimental: FIG. 11. Effects of ABC294640 on disease progression in the adjuvant-induced arthritis model in rats. Male Lewis rats were injected subcutaneously with Mycobacterium butyricum, and symptoms of immune reactivity were present after 2 weeks. Responsive rats were randomized into treatment groups (n=8 per group), and received oral daily doses of: solvent alone (0.375% Tween-80); 100 mg/kg ABC294640; 35 mg/kg ABC294640; or 5 mg/kg ABC294640, or intraperitoneal injections of indomethacin (5 mg/kg) every other day. The severity of disease in each animal was quantified by measurement of the hind paw thickness. Panel A. Time course of hind paw arthritic response. Panel B. Final day (Day 10) hind paw thickness measurements. Panel C. Change in paw thickness of respective group versus non-arthritic rats (naive) at Day 10. *,p<0.05; ***, p<0.001 versus solvent alone group.
Adjuvant-induced arthritis is another widely used assay that recapitulates many features of human rheumatoid arthritis, and so is useful in the evaluation of new drug candidates. Age- and weight-matched male Lewis rats (150-170 g) were injected subcutaneously in the tail with 1 mg of Mycobacterium butyricum (Difco, killed dried) suspended in 0.1 ml of light mineral oil. Symptoms of immune reactivity were present after 2 weeks. Responsive rats were randomized into treatment groups, and received oral daily doses (1 ml) of: solvent alone (0.375% Tween-80); 100 mg/kg ABC294640; 35 mg/kg ABC294640; or 5 mg/kg ABC294640, or intraperitoneal injections of indomethacin (5 mg/kg) every other day as a positive control. The severity of disease in each animal was quantified by measurement of the hind paw thickness. As above, a reduction of 30% or greater was considered to be an indication of anti-inflammatory activity in this model.

Pharmacokinetics in mice = format: in vivo, mouse; conditions: for AUC(0-inf) / Cmax / Tmax / half-life: female, Swiss-Webster, mouse, whole blood, mice
Experimental: Mice were anesthetized and blood was removed by cardiac puncture at time points ranging from 1 minute to 8 hours. […] Control blood samples were spiked with known amounts of internal standard and analyte to identify compound-specific peaks and to develop standard curves for quantification. Pharmacokinetic parameters were calculated using the WINNONLIN analysis software package (Pharsight).

[2] = system: VEGF-induced vascular permeability; test: VEGF-induced vascular leakage (Miles assay) in nude mice; format: in vivo, mouse; conditions: FIG. 7B
[3] = system: diabetic Sprague-Dawley rats; test: Retinal vascular permeability in streptozotocin-diabetic rats; format: in vivo, rat; conditions: 25 or 75 mg/kg IP, 5 days per week, Day 45 to Day 87; inner plexiform and outer nuclear layers
Experimental: FIG. 9. Effects of ABC 294640 on retinal vascular permeability in diabetic rats. From Day 45 through Day 87, Control (open bars) and Diabetic rats were treated with solvent (shaded bars) or ABC294640 at 25 mg/kg (horizontal-hatched bars) or 75 mg/kg (cross-hatched bars). On Day 87, retinal leakage in each animal was measured. Values represent the mean±sd for 3-5 rats per group.
Male Sprague-Dawley rats weighing 150-175 g were used. Diabetes was produced by intraperitoneal injection of streptozotocin (65 mg/kg in citrate buffer) after overnight fasting. Sham-injected non-diabetic animals were also carried as controls. Blood glucose was measured three days post-injection and animals with blood glucose over 250 mg/dL were used as diabetic rats for the study. Blood glucose levels and body weights were monitored weekly throughout the study. On Day 45, retinal vascular permeability was measured in a group of control and diabetic rats (Antonetti et al., Diabetes 47: 1953 (1998), Barber et al., Invest Ophthalmol Vis Sci 46: 2210 (2005)). […] Sections were dewaxed and viewed with an Olympus OM-2 fluorescence microscope fitted with a Sony CLD video camera. Fluorescence intensities of digital images were measured using Leica Confocal Software (Version 2.61, build 1538, LCS Lite, 2004). […]

female DBA/1 mice = test: Collagen-Induced Arthritis (CIA) model in mice; format: in vivo, mouse; conditions: 100 mg/kg orally, Day 12
[4] = system: female Swiss-Webster mice; conditions: mouse, in vivo
Experimental: as §1

endogenous SK = test: Cellular SK activity in bovine retinal endothelial cells; format: cell-based; conditions: 4 hours
Experimental: FIG. 3. Inhibition of cellular SK activity in RECs. Bovine retinal endothelial cells were incubated with 20 μM dimethylsphingosine (DMS) or 25 μg/mL Compound I, Compound II or Compound V (approximately 80 μM for each compound) for 4 hours before the addition of 0.4 μCi of [^3H]sphingosine. After 15 minutes, cells were lysed and extracted with chloroform: methanol. The total amounts of [^3H]sphingosine in the organic phase and [^3H]S1P in the aqueous phase were then determined. Values represent the mean±SD of duplicate samples in a typical experiment.
Cellular S1P formation assay. Cells were grown to confluency in 24-well tissue culture plates and serum-starved for 24 hours as described above. Cells were then treated with 1% DMSO (as the drug vehicle), 20 μM dimethylsphingosine, or the indicated concentration of an SK inhibitor for 4 hours. The cells were then incubated with [^3H]sphingosine for 15 minutes, and the formation of [^3H]S1P was measured as previously described (French et al., Cancer Res 63: 5962 (2003)). In some assays, the cells were serum-starved for 24 hours and then treated with VEGF (50 ng/mL) alone or in the presence of an SK inhibitor for an additional 12 hours. [^3 H]Sphingosine was then added for 15 minutes, and its conversion to [^3H]S1P was measured as indicated above.
A cell-based assay in which the phosphorylation of exogenously added [^3H]sphingosine to [^3H]S1P by endogenous SK can be quantified (French et al., Cancer Res 63: 5962 (2003)) was used to evaluate the effects of test compounds on the activity of SK in intact cells. In this assay, cells are incubated with [^3 H]sphingosine for an appropriate period of time, and then [^3H]sphingosine and [^3H]S1P (formed by endogenous SK activity) are separated by extraction and levels of both species are determined by scintillation counting. We have used a number of cell lines in this assay to confirm that the SK inhibitors are active in multiple intact cell systems. For example, human umbilical vein endothelial cells (HUVECs) are commonly used as a model of human vasculature. […] Similarly, the enzymatic activity of SK in bovine RECs, and its sensitivity to SK inhibitors were assessed. […] Each of inhibitors of SK (Compound I, Compound II and Compound V) was also active against the endogenous SK activity in the bovine RECs.

O=C(NCc1ccncc1)C12CC3CC(C1)CC(c1ccc(Cl)cc1)(C3)C2 [ABC294640]
inhibition of SK (sphingosine kinase (SK)): inhibit SK | solubility (physchem): ≥ 15 mg/mL | inhibition of tumor growth ([1]; 100 mg/kg orally on odd days, PEG400): 69% | therapeutic index (nontoxic dose/antitumor activity) ([1]; female, Balb/c, mouse, in vivo): greater than 30 | toxicity to the tumor-bearing mice ([1]; mouse, in vivo): without toxicity | EC50 for inhibition of tumor growth ([1]; oral, odd days, dose-response, FIG. 13): approximately 35 mg/kg | reduction in the arthritic response (hind paw thickness) (male Lewis rats; 5 mg/kg oral daily): 13% | reduction in the arthritic response (hind paw thickness) (male Lewis rats; 35 mg/kg oral daily): 42% | reduction in the arthritic response (hind paw thickness) (male Lewis rats; 100 mg/kg oral daily): 76% | blood levels versus IC50 for inhibition of SK activity (Pharmacokinetics in mice; during the entire study (up to 8 hours)): exceeded the IC50 | AUC(0-inf) (Pharmacokinetics in mice; IV 50 mg/kg): 56900 ng·h/mL and 137 µM·h | Cmax (Pharmacokinetics in mice; IV 50 mg/kg): 31100 ng/mL and 74 µM | Tmax (Pharmacokinetics in mice; IV 50 mg/kg): 0 h | half-life (Pharmacokinetics in mice; IV 50 mg/kg): 1.4 h | AUC(0-inf) (Pharmacokinetics in mice; Oral 50 mg/kg): 37500 ng·h/mL and 90.1 µM·h | Cmax (Pharmacokinetics in mice; Oral 50 mg/kg): 8000 ng/mL and 19 µM | Tmax (Pharmacokinetics in mice; Oral 50 mg/kg): 0.25 h | half-life (Pharmacokinetics in mice; Oral 50 mg/kg): 4.5 h | VEGF-promoted dye leakage into mouse skin ([2]; 75 mg/kg intraperitoneal): suppressed | VEGF-promoted dye leakage into mouse skin ([2]; 100 mg/kg oral gavage): suppressed | FITC-BSA leakage into the retina versus untreated diabetic rats [3]: substantially reduced | reduction in clinical score versus vehicle (female DBA/1 mice; 6 days per week): 67% | reduction in the increase in hind paw thickness versus vehicle (female DBA/1 mice; 6 days per week): 90% | histologic damage of tibiotarsal joints (female DBA/1 mice): significantly reduced | nontoxic dose [4]: 1000 mg/kg | dose with no immediate or delayed toxicity, acute ([4]; ip): at least 50 mg/kg | dose without noticeable toxicity ([4]; po): at least 100 mg/kg

O=C(NN=Cc1c(O)ccc2ccccc12)c1cc(-c2ccc3ccccc3c2)n[nH]1 [Compound I]
endogenous SK activity in bovine RECs (endogenous SK; 25 μg/mL (approximately 80 μM)): active

O=C1C(=Cc2ccc(O)c(O)c2)Oc2ccccc21 [Compound V]
endogenous SK activity in bovine RECs (endogenous SK; 25 μg/mL (approximately 80 μM)): active

CCCCCCCCCCCCC/C=C/[C@@H](O)[C@H](CO)N(C)C [DMS, dimethylsphingosine, reference compound]
endogenous SK activity in bovine RECs (endogenous SK; 20 μM, positive control): inhibition of SK

From US20060270631A1, “Methods for the treatment and prevention of angiogenic diseases” (priority 2005, published 2006)
